In ChEMBL document CHEMBL2021902, “Type 1 phototherapeutic agents, part I: preparation and cancer cell viability studies of novel photolabile sulfenamides” (ACS Med Chem Lett, 2011):
Activity calls are given as the source filed them. The rule behind the calls is not given here.

What was measured:
Assay type in all cases: functional, cell-based
HT-29 = assay: Cytotoxicity in UV-irradiated human HT-29 cells exposed to photosensitizer for 2 hrs before irradiation for 20 mins by WST-1 assay
HCT-116 = assay: Cytotoxicity in UV-irradiated human HCT116 cells exposed to photosensitizer for 2 hrs before irradiation for 20 mins by WST-1 assay
KB = assay: Cytotoxicity in UV-irradiated human KB cells exposed to photosensitizer for 2 hrs before irradiation for 20 mins by WST-1 assay
U-937 = assay: Cytotoxicity in UV-irradiated human U937 cells exposed to photosensitizer for 2 hrs before irradiation for 20 mins by WST-1 assay; conditions: for IC50: U-937, light or radiation study

SMILES	Activity (HT-29)	Activity (HCT-116)	Activity (KB)	Activity (U-937)	IC50 (U-937) [µM]
O=[N+]([O-])c1ccc(SN2c3ccccc3C=Cc3ccccc32)cc1	Active	Active	Active	Dose-dependent effect	1.2
O=[N+]([O-])c1ccc(SN2Cc3ccccc3-c3ccccc32)cc1	–	–	–	Dose-dependent effect	7.3
O=[N+]([O-])c1ccc(SN2Cc3ccccc3Cc3ccccc32)cc1	–	–	–	Dose-dependent effect	5.7
O=[N+]([O-])c1ccc(SN(c2ccccc2)c2ccccc2)cc1	–	–	–	Dose-dependent effect	6.8
O=[N+]([O-])c1ccc(SN2c3ccccc3Sc3ccccc32)cc1	–	–	–	Dose-dependent effect	12.4
O=[N+]([O-])c1ccc(SN2CCc3ccccc3-c3ccccc32)cc1	–	–	–	Dose-dependent effect	6
CC1=Nc2ccc(Cl)cc2N(Sc2ccc([N+](=O)[O-])cc2)c2ccccc21	–	–	–	Dose-dependent effect	2
O=[N+]([O-])c1ccc(Sn2c3ccccc3c3ccccc32)cc1	–	–	–	Dose-dependent effect	> 20
O=[N+]([O-])c1ccc(SN2c3ccccc3Cc3ccccc32)cc1	Active	Active	Active	Dose-dependent effect	1.3
O=[N+]([O-])c1ccc(SN2Cc3ccccc3Oc3ccccc32)cc1	–	–	–	Dose-dependent effect	17.2
O=[N+]([O-])c1ccc(SN2c3ccccc3Oc3ccccc32)cc1	–	–	–	Dose-dependent effect	> 20
O=[N+]([O-])c1ccc(SN2c3ccccc3N=Nc3ccccc32)cc1	–	–	–	Dose-dependent effect	> 20
